Assay results as given in ChEMBL document CHEMBL5143522, “Discovery of novel 6-hydroxybenzothiazole urea derivatives as dual Dyrk1A/α-synuclein aggregation inhibitors with neuroprotective effects” (Eur J Med Chem, 2022).
Activity calls are given as the source filed them. The calls are words filed in the database; no cut-off is given here.

What was measured:
[1] = biological target: Glycogen synthase kinase-3 beta (Homo sapiens) (UniProt P49841); assay: Inhibition of GSK3beta (unknown origin) at 1 uM incubated in presence of ATP by Selectscreen kinase assay relative to control
[2] = biological target: T1, Dual specificity tyrosine-phosphorylation-regulated kinase 1A (Homo sapiens, UniProt Q13627); conditions: dose 250.0 nM
[3] = biological target: Dual specificity protein kinase CLK1 (Homo sapiens) (UniProt P49759); assay: Inhibition of GST-tagged human recombinant CLK1 (129 to 484 residues) expressed in Escherichia coli at 1 uM using GRSRSRSRSRSRSRSR as substrate incubated in presence of ATP by Selectscreen kinase assay relative to control
[4] = biological target: T1, Dual specificity tyrosine-phosphorylation-regulated kinase 1A; assay: Inhibition of DYRK1A in human HeLa cells transiently expressing GFP-SF3B1 fusion protein assessed as reduction in SF3B1 phosphorylation incubated for 24 hrs by immunoblot analysis; assay type: cell-based
[5] = biological target: T2, Dual specificity tyrosine-phosphorylation-regulated kinase 2 (Homo sapiens) (UniProt Q92630); assay: Inhibition of DYRK2 (unknown origin) at 1 uM incubated in presence of ATP by Selectscreen kinase assay relative to control
T2 sequence (whole entry): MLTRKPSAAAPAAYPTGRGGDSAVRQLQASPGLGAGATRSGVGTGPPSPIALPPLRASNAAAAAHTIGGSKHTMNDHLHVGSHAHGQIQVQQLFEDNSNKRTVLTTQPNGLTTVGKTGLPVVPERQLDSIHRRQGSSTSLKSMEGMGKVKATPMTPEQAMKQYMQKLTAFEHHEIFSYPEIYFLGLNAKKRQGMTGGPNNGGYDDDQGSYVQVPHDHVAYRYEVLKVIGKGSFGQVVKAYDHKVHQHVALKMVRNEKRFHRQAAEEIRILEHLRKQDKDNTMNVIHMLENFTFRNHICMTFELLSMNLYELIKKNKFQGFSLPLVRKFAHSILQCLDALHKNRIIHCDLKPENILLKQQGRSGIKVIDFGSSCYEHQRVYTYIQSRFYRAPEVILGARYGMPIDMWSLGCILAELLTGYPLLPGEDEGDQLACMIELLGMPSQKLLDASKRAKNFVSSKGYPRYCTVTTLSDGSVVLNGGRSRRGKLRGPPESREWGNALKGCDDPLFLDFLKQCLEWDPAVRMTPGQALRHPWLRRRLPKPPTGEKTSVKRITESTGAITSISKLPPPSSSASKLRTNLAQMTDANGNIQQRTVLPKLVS

[6] = biological target: T1, Dual specificity tyrosine-phosphorylation-regulated kinase 1A; assay: Inhibition of human N-terminal His6-tagged DYRK1A expressed in Escherichia coli BL21 (DE3) using KKISGRLSPIMTEQ as substrate incubated in presence of ATP
[7] = biological target: Serine/threonine-protein kinase pim-1 (Homo sapiens) (UniProt P11309); assay: Inhibition of PIM1 (unknown origin) at 1 uM incubated in presence of ATP by Selectscreen kinase assay relative to control
[8] = Permeability of the compound in PBS/EtOH buffer (7:3) incubated for 16 hrs by PAMPA-BBB assay
[9] = biological target: T1, Dual specificity tyrosine-phosphorylation-regulated kinase 1A; assay: Binding affinity to C-terminal HiBiT-tagged human DYRK1A (28 to 499 residues) stably expressed in HEK293 cells assessed as thermal stability by measuring increase in DYRK1A in soluble fraction at 10 to 30 uM incubated for 3.5 mins by ITDRF-CETSA analysis; assay type: cell-based; conditions: dose 10-30 µM
[10] = biological target: Cyclin-dependent kinase 5/CDK5 activator 1 (Homo sapiens) (UniProt Q00535+Q15078); assay: Inhibition of CDK5/p25 (unknown origin) at 1 uM by Selectscreen kinase assay relative to control; assay type: protein-complex assay
[11] = biological target: SRSF protein kinase 1 (Homo sapiens) (UniProt Q96SB4); assay: Inhibition of SRPK1 (unknown origin) at 1 uM incubated in presence of ATP by Selectscreen kinase assay relative to control
[12] = biological target: Casein kinase I isoform delta (Homo sapiens) (UniProt P48730); assay: Inhibition of CSNK1D (unknown origin) at 1 uM incubated in presence of ATP by Selectscreen kinase assay relative to control
[13] = biological target: T3, Serine/threonine-protein kinase 17A (Homo sapiens) (UniProt Q9UEE5); assay: Inhibition of STK17A (unknown origin) at 1 uM incubated in presence of ATP by Selectscreen kinase assay relative to control
T3 sequence (whole entry): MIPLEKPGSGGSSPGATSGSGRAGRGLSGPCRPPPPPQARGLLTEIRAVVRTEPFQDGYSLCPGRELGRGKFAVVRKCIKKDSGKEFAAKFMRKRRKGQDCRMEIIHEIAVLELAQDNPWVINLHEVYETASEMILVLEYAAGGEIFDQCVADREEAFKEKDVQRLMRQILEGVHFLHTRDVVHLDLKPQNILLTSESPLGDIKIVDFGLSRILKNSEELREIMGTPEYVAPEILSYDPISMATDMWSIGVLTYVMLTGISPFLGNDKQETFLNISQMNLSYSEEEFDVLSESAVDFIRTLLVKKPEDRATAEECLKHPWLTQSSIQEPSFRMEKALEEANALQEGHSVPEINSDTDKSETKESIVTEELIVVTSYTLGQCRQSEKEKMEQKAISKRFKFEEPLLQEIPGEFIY

[14] = biological target: Dual specificity tyrosine-phosphorylation-regulated kinase 1B (Homo sapiens) (UniProt Q9Y463); assay: Inhibition of human recombinant DYRK1B at 1 uM using KKISGRLSPIMTEQ as substrate incubated in presence of ATP relative to control
[15] = system: SH-SY5Y; assay: Neuroprotective activity against 6-OHDA induced cytotoxicity against human SH-SY5Y cells assessed as increase in cell viability at 10 uM by MTT assay; assay type: functional, cell-based
[16] = system: SH-SY5Y; assay: Neuroprotective activity against alpha-syn induced cytotoxicity against human SH-SY5Y cells assessed as increase in cell viability at 10 uM by MTT assay; assay type: functional, cell-based
[17] = biological target: T1, Dual specificity tyrosine-phosphorylation-regulated kinase 1A; assay: Inhibition of human Dyrk1A
[18] = biological target: T4, Dual specificity tyrosine-phosphorylation-regulated kinase 2 (Homo sapiens, UniProt Q92630); assay: Inhibition of Dyrk2 (unknown origin)
T4 sequence (Q92630 whole entry): T2 sequence (whole entry)

[19] = biological target: Homeodomain-interacting protein kinase 1 (Homo sapiens) (UniProt Q86Z02); assay: Inhibition of HIPK1 (unknown origin) at 1 uM incubated in presence of ATP by Selectscreen kinase assay relative to control
[20] = biological target: Myosin light chain kinase 2, skeletal/cardiac muscle (Homo sapiens) (UniProt Q9H1R3); assay: Inhibition of MLCK2 (unknown origin) at 1 uM incubated in presence of ATP by Selectscreen kinase assay relative to control
[21] = biological target: T5, Serine/threonine-protein kinase haspin (Homo sapiens) (UniProt Q8TF76); assay: Inhibition of GSG2 (unknown origin) at 1 uM incubated in presence of ATP by Selectscreen kinase assay relative to control
T5 sequence (whole entry): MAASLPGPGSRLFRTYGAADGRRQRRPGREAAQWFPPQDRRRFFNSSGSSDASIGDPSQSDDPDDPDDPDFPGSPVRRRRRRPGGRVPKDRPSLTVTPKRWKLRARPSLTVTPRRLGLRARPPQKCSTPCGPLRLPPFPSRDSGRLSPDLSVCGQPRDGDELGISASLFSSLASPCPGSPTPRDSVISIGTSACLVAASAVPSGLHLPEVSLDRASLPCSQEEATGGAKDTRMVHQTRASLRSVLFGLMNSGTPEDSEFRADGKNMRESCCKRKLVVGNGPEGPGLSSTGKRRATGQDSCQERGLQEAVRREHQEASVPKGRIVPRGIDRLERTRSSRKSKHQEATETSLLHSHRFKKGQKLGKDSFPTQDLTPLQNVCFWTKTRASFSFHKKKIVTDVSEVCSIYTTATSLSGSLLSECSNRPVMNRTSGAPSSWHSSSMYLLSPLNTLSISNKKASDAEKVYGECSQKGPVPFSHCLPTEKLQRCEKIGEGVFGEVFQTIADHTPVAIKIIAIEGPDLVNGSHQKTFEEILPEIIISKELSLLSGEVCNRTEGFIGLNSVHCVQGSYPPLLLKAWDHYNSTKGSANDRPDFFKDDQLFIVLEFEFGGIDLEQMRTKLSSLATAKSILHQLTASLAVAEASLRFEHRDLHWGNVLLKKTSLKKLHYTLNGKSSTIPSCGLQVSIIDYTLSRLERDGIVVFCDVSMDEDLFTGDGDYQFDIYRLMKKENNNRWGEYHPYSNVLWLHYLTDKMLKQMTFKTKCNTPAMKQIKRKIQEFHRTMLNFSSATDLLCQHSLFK

Chain of Dual specificity tyrosine-phosphorylation-regulated kinase 1B (Homo sapiens) (Q9Y463 whole entry, looked up): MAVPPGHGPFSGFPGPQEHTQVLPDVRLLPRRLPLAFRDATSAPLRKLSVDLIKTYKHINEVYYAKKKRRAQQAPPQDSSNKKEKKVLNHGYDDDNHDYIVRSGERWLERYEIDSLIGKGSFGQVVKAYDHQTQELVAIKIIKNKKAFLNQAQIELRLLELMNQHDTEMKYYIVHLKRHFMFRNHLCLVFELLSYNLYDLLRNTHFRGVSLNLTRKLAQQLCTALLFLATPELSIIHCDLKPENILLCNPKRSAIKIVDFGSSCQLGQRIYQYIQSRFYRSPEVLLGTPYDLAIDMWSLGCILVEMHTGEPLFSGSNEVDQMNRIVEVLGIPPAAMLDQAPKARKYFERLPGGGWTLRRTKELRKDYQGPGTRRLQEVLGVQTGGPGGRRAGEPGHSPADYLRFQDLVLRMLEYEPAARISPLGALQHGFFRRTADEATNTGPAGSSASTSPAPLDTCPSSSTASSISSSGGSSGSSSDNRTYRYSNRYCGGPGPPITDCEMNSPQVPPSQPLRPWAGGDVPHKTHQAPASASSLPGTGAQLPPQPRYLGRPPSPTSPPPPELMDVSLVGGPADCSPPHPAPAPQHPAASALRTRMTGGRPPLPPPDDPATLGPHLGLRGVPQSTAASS
Chain of Casein kinase I isoform delta (Homo sapiens) (P48730 whole entry, looked up, canonical isoform): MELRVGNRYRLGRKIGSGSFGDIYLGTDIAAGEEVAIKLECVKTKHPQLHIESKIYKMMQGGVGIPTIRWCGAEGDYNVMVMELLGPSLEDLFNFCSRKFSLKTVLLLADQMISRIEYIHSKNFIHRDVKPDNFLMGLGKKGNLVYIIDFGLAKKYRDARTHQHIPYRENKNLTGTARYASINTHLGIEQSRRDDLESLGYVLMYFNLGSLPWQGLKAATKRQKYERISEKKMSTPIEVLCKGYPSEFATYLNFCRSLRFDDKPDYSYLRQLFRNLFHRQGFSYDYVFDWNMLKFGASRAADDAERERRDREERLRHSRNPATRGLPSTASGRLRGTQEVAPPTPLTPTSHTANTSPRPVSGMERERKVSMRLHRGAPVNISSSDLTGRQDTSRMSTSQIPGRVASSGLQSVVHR
Chain of Dual specificity protein kinase CLK1 (Homo sapiens) (P49759 whole entry, looked up, the tested form may be a part): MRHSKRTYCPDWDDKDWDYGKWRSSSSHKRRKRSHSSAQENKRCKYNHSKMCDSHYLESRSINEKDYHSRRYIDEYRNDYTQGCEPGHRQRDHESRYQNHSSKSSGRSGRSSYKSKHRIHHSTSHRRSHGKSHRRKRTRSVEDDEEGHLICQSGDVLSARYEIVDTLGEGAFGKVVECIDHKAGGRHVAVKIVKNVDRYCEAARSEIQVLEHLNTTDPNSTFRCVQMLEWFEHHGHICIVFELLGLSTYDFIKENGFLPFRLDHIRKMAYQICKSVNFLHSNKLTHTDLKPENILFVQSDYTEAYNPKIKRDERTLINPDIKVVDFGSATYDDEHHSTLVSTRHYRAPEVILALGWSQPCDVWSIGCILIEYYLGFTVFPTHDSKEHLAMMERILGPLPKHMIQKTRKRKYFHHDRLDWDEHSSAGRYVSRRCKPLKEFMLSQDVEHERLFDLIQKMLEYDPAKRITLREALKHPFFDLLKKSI
Chain of Cyclin-dependent kinase 5/CDK5 activator 1 (Homo sapiens) (Q00535 whole entry): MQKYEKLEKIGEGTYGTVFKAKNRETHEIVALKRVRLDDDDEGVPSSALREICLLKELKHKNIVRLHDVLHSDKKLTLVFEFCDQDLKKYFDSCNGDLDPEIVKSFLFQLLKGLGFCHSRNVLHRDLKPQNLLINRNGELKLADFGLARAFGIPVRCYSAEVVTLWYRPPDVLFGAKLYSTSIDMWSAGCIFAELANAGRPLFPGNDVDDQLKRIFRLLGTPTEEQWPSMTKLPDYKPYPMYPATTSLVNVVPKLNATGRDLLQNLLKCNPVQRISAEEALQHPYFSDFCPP
Chain of Cyclin-dependent kinase 5/CDK5 activator 1 (Homo sapiens) (Q15078 99-307 partner limits assumed): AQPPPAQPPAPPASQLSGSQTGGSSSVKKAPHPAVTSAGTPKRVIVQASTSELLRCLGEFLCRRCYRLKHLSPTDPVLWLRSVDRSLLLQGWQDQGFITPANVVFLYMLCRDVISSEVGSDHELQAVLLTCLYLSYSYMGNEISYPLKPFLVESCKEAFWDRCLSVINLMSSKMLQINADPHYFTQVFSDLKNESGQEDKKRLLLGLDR
Chain of Glycogen synthase kinase-3 beta (Homo sapiens) (P49841 whole entry, looked up): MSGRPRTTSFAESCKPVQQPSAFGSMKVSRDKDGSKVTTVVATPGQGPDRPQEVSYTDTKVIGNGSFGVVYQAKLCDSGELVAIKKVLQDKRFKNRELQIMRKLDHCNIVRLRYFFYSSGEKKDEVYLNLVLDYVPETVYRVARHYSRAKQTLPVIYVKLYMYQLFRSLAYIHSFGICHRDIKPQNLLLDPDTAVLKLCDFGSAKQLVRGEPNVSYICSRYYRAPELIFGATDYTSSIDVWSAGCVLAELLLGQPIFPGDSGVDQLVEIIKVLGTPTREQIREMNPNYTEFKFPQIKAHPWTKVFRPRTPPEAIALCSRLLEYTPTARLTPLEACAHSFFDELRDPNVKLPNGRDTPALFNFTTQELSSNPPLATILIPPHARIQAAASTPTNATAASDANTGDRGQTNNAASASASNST
Chain of SRSF protein kinase 1 (Homo sapiens) (Q96SB4 whole entry, canonical isoform): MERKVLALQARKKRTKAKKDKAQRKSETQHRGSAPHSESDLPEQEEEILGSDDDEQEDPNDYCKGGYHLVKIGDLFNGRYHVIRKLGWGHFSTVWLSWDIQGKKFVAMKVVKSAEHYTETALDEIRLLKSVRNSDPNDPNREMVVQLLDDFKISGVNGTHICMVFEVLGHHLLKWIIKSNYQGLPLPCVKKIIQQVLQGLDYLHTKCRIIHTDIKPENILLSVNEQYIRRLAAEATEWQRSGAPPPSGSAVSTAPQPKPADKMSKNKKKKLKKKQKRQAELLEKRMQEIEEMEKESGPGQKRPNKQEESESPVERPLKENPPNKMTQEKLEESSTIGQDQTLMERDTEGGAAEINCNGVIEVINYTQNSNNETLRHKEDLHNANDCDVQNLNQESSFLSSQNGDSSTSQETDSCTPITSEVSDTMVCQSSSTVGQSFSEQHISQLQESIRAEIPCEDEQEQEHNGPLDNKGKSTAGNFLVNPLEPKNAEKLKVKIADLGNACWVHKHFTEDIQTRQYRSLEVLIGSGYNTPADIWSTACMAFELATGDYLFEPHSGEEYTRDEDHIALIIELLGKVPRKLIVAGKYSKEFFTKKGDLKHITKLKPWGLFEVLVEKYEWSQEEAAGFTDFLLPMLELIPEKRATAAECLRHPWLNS
Chain of Serine/threonine-protein kinase pim-1 (Homo sapiens) (P11309 whole entry, looked up): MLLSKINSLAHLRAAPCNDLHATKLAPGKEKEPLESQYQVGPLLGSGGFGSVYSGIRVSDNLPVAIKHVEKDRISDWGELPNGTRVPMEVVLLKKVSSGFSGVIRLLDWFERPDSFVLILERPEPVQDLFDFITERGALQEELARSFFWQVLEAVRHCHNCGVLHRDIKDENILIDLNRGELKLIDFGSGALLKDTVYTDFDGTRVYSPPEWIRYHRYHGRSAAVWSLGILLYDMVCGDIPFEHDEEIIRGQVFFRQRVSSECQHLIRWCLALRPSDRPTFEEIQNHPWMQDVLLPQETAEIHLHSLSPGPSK
Chain of Myosin light chain kinase 2, skeletal/cardiac muscle (Homo sapiens) (Q9H1R3 whole entry): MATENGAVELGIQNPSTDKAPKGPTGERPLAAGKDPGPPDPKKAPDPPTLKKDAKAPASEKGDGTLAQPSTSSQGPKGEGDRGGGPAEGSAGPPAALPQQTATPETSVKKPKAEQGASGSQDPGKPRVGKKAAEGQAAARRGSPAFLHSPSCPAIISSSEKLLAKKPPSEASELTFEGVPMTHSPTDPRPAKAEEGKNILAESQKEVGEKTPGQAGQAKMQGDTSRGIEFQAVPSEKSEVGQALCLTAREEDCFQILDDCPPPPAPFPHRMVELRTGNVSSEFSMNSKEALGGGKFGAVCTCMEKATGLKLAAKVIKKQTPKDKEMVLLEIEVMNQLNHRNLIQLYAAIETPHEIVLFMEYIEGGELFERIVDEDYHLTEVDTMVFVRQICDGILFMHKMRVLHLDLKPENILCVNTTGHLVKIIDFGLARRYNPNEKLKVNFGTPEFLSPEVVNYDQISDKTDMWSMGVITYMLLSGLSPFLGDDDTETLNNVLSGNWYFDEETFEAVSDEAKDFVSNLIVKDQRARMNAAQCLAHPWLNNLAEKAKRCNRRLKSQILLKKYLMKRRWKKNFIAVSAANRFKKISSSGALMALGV

O=C(Cc1ccccc1)Nc1ccc(NC(=O)Nc2nc3ccc(O)cc3s2)cc1
inhibition [1]: 8% | inhibition [2]: 75% | inhibition [3]: 21% | IC50 [4]: 690 nM | inhibition [5]: 20% | IC50 [6]: 20 nM | inhibition [7]: 3% | Papp at 16 h [8]: 7.9 ×10⁻⁶ cm/s | Activity [9]: Active | inhibition [10]: 6% | inhibition [11]: 4% | inhibition [12]: 6% | inhibition [13]: 28%

O=C(Nc1cccc(NS(=O)(=O)c2cccc(F)c2)c1)Nc1nc2ccc(O)cc2s1
inhibition [14]: 10%

O=C(Nc1ccc(NC(=O)C2CCC2)cc1)Nc1nc2ccc(O)cc2s1
inhibition [14]: 26%

O=C(Nc1ccc(NC(=O)c2ccc(Cl)cc2)cc1)Nc1nc2ccc(O)cc2s1
inhibition [14]: 6%

O=C(Nc1ccc(NC(=O)C2CCCCC2)cc1)Nc1nc2ccc(O)cc2s1
inhibition [14]: 25%

COc1ccc2c(c1)[nH]c1c(C)nccc12
Activity [15]: Active

O=C(Nc1ccc(NC(=O)c2ccccc2F)cc1)Nc1nc2ccc(O)cc2s1
inhibition [14]: 17%

O=C(Nc1ccc(NC(=O)c2cccc(O)c2)cc1)Nc1nc2ccc(O)cc2s1
Papp at 16 h [8]: 6.5 ×10⁻⁶ cm/s | inhibition [14]: 46% | Activity [16]: Active

O=C(Nc1ccc(NC(=O)c2cc(F)c(F)c(F)c2)cc1)Nc1nc2ccc(O)cc2s1
inhibition [14]: 10%

O=C(Nc1ccc(NC(=O)c2cccc(F)c2)cc1)Nc1nc2ccc(O)cc2s1
inhibition [14]: 9%

Cc1cccc(C(=O)Nc2ccc(NC(=O)Nc3nc4ccc(O)cc4s3)cc2)c1
inhibition [14]: 30%

O=C(Nc1ccc(NC(=O)C2CCNCC2)cc1)Nc1nc2ccc(O)cc2s1
inhibition [2]: 69% | Activity [15]: Active | IC50 [6]: 177 nM | Papp at 16 h [8]: 4.4 ×10⁻⁶ cm/s | inhibition [14]: 51%

O=C(Nc1ccc(NS(=O)(=O)c2cc(F)cc(F)c2)cc1)Nc1nc2ccc(O)cc2s1
inhibition [14]: 9%

O=C(Nc1ccc(NS(=O)(=O)c2ccccc2F)cc1)Nc1nc2ccc(O)cc2s1
inhibition [14]: 19%

O=C(Nc1ccc(NC(=O)c2c(F)cc(F)cc2F)cc1)Nc1nc2ccc(O)cc2s1
inhibition [14]: 17%

CN1CCN(C(=O)c2ccc(NC(=O)Nc3nc4ccc(O)cc4s3)cc2)CC1
IC50 [17]: 93 nM | IC50 [18]: > 5000 nM

N#Cc1ccc(C(=O)Nc2ccc(NC(=O)Nc3nc4ccc(O)cc4s3)cc2)cc1
inhibition [14]: 23%

O=C(Nc1ccc(NC(=O)C2CC2)cc1)Nc1nc2ccc(O)cc2s1
inhibition [2]: 62% | IC50 [6]: 159 nM | inhibition [14]: 29%

O=C(Nc1ccc(NC(=O)c2cccc(Br)c2)cc1)Nc1nc2ccc(O)cc2s1
inhibition [14]: 13%

O=C(Nc1ccc(NC(=O)c2ccccc2)cc1)Nc1nc2ccc(O)cc2s1
inhibition [2]: 65% | IC50 [6]: 154 nM | inhibition [14]: 34%

O=C(Nc1ccc(NS(=O)(=O)c2cccc(F)c2)cc1)Nc1nc2ccc(O)cc2s1
inhibition [1]: 15% | inhibition [19]: 2% | inhibition [2]: 79% | inhibition [3]: 7% | inhibition [20]: 18% | inhibition [5]: 27% | IC50 [6]: 45 nM | inhibition [7]: 3% | inhibition [14]: 15% | inhibition [10]: 5% | inhibition [11]: 4% | inhibition [12]: 15% | inhibition [21]: 3% | inhibition [13]: 29%

O=C(Nc1ccc(NS(=O)(=O)c2ccccc2)cc1)Nc1nc2ccc(O)cc2s1
inhibition [14]: 18%

O=C(Nc1ccc(NC(=O)c2ccc(F)cc2)cc1)Nc1nc2ccc(O)cc2s1
inhibition [14]: 13%

O=C(Nc1ccc(NC(=O)c2cccc(Cl)c2)cc1)Nc1nc2ccc(O)cc2s1
inhibition [14]: 18%

O=C(Nc1ccc(NC(=O)c2cc(F)cc(F)c2)cc1)Nc1nc2ccc(O)cc2s1
inhibition [14]: 11%

CC(=O)Nc1ccc(NC(=O)Nc2nc3ccc(O)cc3s2)cc1
inhibition [14]: 65%

O=C(Nc1ccc(NC(=O)c2cccc(C(F)(F)F)c2)cc1)Nc1nc2ccc(O)cc2s1
inhibition [14]: 14%

CCn1cc(C(=O)O)c(=O)c2cc(F)c(N3CCNCC3)cc21 [NORFLOXACIN]
Papp at 16 h [8]: 1.1 ×10⁻⁶ cm/s

N#Cc1cccc(C(=O)Nc2ccc(NC(=O)Nc3nc4ccc(O)cc4s3)cc2)c1
inhibition [14]: 36%

O=C(Nc1ccc(NC(=O)c2cc(Cl)cc(Cl)c2)cc1)Nc1nc2ccc(O)cc2s1
inhibition [14]: 11%
